Reference: article PMC9643456, “Matching amino acids membrane preference profile to improve activity of antimicrobial peptides” (Communications Biology, 2022)
Ends that are not written are not given here.

Columns and labels:
[1] = tested on: human red blood cells; assay: Hemolytic activity; assay type: cell-based; conditions: red cells of human, 18 h
Summary of the method: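 Haemolysis was read as A540 of cleared supernatants after 18 h at 37 °C, with 0% and 100% lysis set by peptide-free PBS and 1% Triton X-100 and melittin as positive control. Human RBCs were at 4% final, peptide serially diluted 100–0.78 μM; three replicates.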

[2] = Maximum soluble concentration / turbidity; assay type: physicochemical; conditions: for Maximum soluble concentration in PBS: lyophilized peptide reconstructed in PBS at 200-6.25 μM, visible turbidity checked every 12 h for 5 days, at least twice
Description: Supplementary Methods Bacteria preparation, Antimicrobial peptides preparation, Minimal-inhibitory-concentration measurements, Hemolysis-activity measurements, Tryptophan fluorescence measurements, Isothermal titration calorimetry measurements, Bacteria membrane ion permeation measurements, Outer-inner membrane permeation, Field-emission scanning electron microscopy and Antimicrobial kinetics were performed as described in Materials and Methods. Liposome (LUV) preparation. Bacterial-membrane-mimic DMPC/DMPG unilamellar vesicles (LUV) and mammalian- membrane-mimic PC/cholesterol vesicles with 100-nm diameters were prepared by extrusion. LiposoFast Liposome Factory Basic unit with stabilizer (Avestin, Ottawa, Canada) was used to extrude liposomes 50 times through a polycarbonate membrane filter (pore diameter, 100 nm; filter diameter, 0.75 inches) (Avestin). […] rac-(1-glycerol)) (sodium salt) (DMPG) (Avanti, Alabama, USA); 1,2-Dimyristoyl-sn-glycero-3-phosphocholine (DMPC) (Avanti); and cholesterol (Sigma, Darmstadt, Germany) were used. For circular dichroism, isothermal titration calorimetry, tryptophan fluorescence, and dynamic light scattering experiments, liposomes were reconstructed and resuspendedwith phosphate-buffered saline (PBS; Welgene Inc, Gyeongsangbuk-do, Korea). For calcein-permeation tests, liposomes were reconstructed with calcein solutions (80 mM, 40 mM, 30 mM, 20 mM, and 10 mM) (Sigma, Darmstadt, Germany), purified with Sephadex-G50 columns (Pharmacia biotech, Stockholm, Sweden), and resuspended with PBS. Maximum-soluble -concentration measurements. […] turbidity with PBS. The lowest concentration of peptide without visible turbidity was determined to be the maximu m soluble concentration. Each experiment was performed at least twice. Circular dichroism (CD) spectrum. DMPC/PG -liposome, PC/cholesterol -liposome, and peptide stock solutions were diluted in PBS. For circular dichroism, PBS with neither liposome nor peptides was also prepared. Liposomes and peptides were mixed to […] Samples were transferred into type J/1 cuvettes (Jasco, Tokyo, Japan). Cuvettes were placed into the J -815 circular -dichroism spectrometer (Jasco, Tokyo, Japan). Measurement parameters were as follows: wavelength, 190 -260 nm; data pitch, 0.2 nm; bandwidth, 1.00 nm; […] Each experiment was performed in triplicate. Data below 197 nm was not analyzed because o f experimental difficulties in obtaining those spectra. Each experiment was performed at least twice. Artificial membrane calcein permeation measurements. Calcein fluorescence was used to measure peptide -induced liposome permeation. Calcein solutions (10 mM, 20 mM, or 60 mM) containing PC/PG liposomes and peptides were diluted in PBS ( ×1, ×2, ×3, ×8). […] Liposome solutions (180 μl) were transferred to wells of black, clear -bottomed 96 -well plates (Costar, New York, USA). Peptide […] Liposome-containing plates and peptide -containing plates were inserted into a Flexstation 3 Multi -Mode Microplate Reader (Molecular Devices, California, USA). Peptide solutions (20 μl) were transferred and mixed with liposome solution automatical ly after 30 sec. […] Measurement parameters were as follows: excitation, 490 nm; emission, 520 nm; temperature, 37 °C. […] was transferred and mixed with the liposome -peptide solu tions automatically after 300 sec to acquire fluorescence at maximum leakage. […] Fluorescence measured between 0 -300 sec after addition of 0 μg/ml peptide was considered the baseline. Each experiment was performed at least twice. Dynamic light scattering (DLS) measurements. Dynamic light scattering was used to measure peptide -induced liposome volume changes. PC/PG -liposome stock solutions and peptides were resuspended in PBS. Liposomes and peptides were mixed to […]

[3] = tested on: MDR A. baumannii; assay: microbe, parasite or virus in culture; conditions: for MIC in 0.2% albumin and 0.01% AcOH added CLSI standard condition, MDR A. baumannii: CAMHB plus 0.2% bovine serum albumin and 0.01% acetic acid, values marked * in Table 2; for Minimum inhibitory concentrations, MDR A. baumannii: CLSI broth microdilution, CAMHB with 50 mg/L Ca2+, 10 mg/L Mg2+, 5 × 10^5 CFU/ml, 18 h 37 °C, triplicate, strain ATCC BAA-1605
Summary of the method: (§1)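 MIC was read by eye as the lowest peptide concentration leaving no visible turbidity. Peptide and mid-log cells (final 5 × 10^5 CFU/ml) were combined in cation-adjusted Mueller–Hinton broth containing 50 mg/L calcium and 10 mg/L magnesium and incubated 18 h at 37 °C.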

[4] = tested on: MDR E. faecalis; assay: microbe, parasite or virus in culture; conditions: for MIC in 0.2% albumin and 0.01% AcOH added CLSI standard condition, MDR E. faecalis: CAMHB plus 0.2% bovine serum albumin and 0.01% acetic acid, values marked * in Table 2; for Minimum inhibitory concentrations, MDR E. faecalis: CLSI broth microdilution, CAMHB with 50 mg/L Ca2+, 10 mg/L Mg2+, 5 × 10^5 CFU/ml, 18 h 37 °C, triplicate, strain ATCC 51575
Summary of the method: as §1

[5] = tested on: MDR P. aeruginosa; assay: microbe, parasite or virus in culture; conditions: for MIC in 0.2% albumin and 0.01% AcOH added CLSI standard condition, MDR P. aeruginosa: CAMHB plus 0.2% bovine serum albumin and 0.01% acetic acid, values marked * in Table 2; for Minimum inhibitory concentrations, MDR P. aeruginosa: CLSI broth microdilution, CAMHB with 50 mg/L Ca2+, 10 mg/L Mg2+, 5 × 10^5 CFU/ml, 18 h 37 °C, no visible turbidity, triplicate, strain CCARM 2180
Summary of the method: as §1

[6] = tested on: MDR S. aureus; assay: microbe, parasite or virus in culture; conditions: for MIC in 0.2% albumin and 0.01% AcOH added CLSI standard condition, MDR S. aureus: CAMHB plus 0.2% bovine serum albumin and 0.01% acetic acid, values marked * in Table 2; for Minimum inhibitory concentrations, MDR S. aureus: CLSI broth microdilution, CAMHB with 50 mg/L Ca2+, 10 mg/L Mg2+, 5 × 10^5 CFU/ml, 18 h 37 °C, triplicate, strain KCCM 40510
Summary of the method: as §1

| Compound | Hemolysis percent, 25 μM [1] [%] | Hemolysis percent, 50 μM [1] [%] | Hemolysis percent, 100 μM [1] [%] | solubility ([2]; distilled water) [µM] | MIC in 0.2% albumin and 0.01% AcOH added CLSI standard condition, MDR A. baumannii [3] [µM] | Minimum inhibitory concentrations, MDR A. baumannii [3] [µM] | MIC in 0.2% albumin and 0.01% AcOH added CLSI standard condition, MDR E. faecalis [4] [µM] | MIC in 0.2% albumin and 0.01% AcOH added CLSI standard condition, MDR P. aeruginosa [5] [µM] | MIC in 0.2% albumin and 0.01% AcOH added CLSI standard condition, MDR S. aureus [6] [µM] | Maximum soluble concentration in PBS [2] [µM] | Minimum inhibitory concentrations, MDR E. faecalis [4] [µM] | Minimum inhibitory concentrations, MDR P. aeruginosa [5] [µM] | Minimum inhibitory concentrations, MDR S. aureus [6] [µM] |
| --- | --- | --- | --- | --- | --- | --- | --- | --- | --- | --- | --- | --- | --- |
| CC(C)C[C@H](NC(=O)[C@H](CCCNC(=N)N)NC(=O)CNC(=O)CNC(=O)[C@@H](N)CCCNC(=N)N)C(=O)N[C@H]1CSSC[C@@H](C(=O)N[C@H](C(=O)NCC(=O)N[C@@H](CCCNC(=N)N)C(N)=O)C(C)C)NC(=O)[C@H](C(C)C)NC(=O)[C@@H]2CSSC[C@H](NC(=O)[C@H](Cc3ccc(O)cc3)NC1=O)C(=O)N[C@@H](CCCNC(=N)N)C(=O)N[C@@H](CCCNC(=N)N)C(=O)N[C@@H](CCCNC(=N)N)C(=O)N[C@@H](Cc1ccccc1)C(=O)N2 [Protegrin-1, reference compound] | 47.83 ±6.23 | 56.75 ±6.02 | 71.66 ±12.24 | < 500 |  |  |  |  |  |  |  |  |  |
| RWLRWWIRV-NH2 [HLWCopW29-1] | 1.20 ±0.14 | 1.35 ±0.11 | 16.39 ±2.19 |  | 1.25 | 2.5 | 10 | 20 | 10 | > 200 |  |  |  |
| WLVWVGRRR-NH2 [Hybrid-1] | 0.88 ±0.24 | 1.09 ±0.32 | 1.40 ±0.08 |  | > 20 | > 20 | > 20 | > 20 | > 20 | > 200 | > 20 | > 20 | > 20 |
| GVLVLFRRR-NH2 [Ptg C-ter 1] | 0.40 ±0.10 | 0.99 ±0.26 | 1.17 ±0.07 |  | > 20 | > 20 | > 20 | > 20 | > 20 | 100 | > 20 | > 20 | > 20 |
| WRLWRWIVR-NH2 [HLWCopW29-3] | 1.10 ±0.14 | 1.37 ±0.02 | 4.45 ±0.23 |  | 20 |  | 20 | > 20 | 20 | > 200 |  | > 20 |  |
| WLVWVWRRR-NH2 [Hybrid-3] | 4.26 ±0.63 | 5.14 ±0.19 | 7.17 ±1.09 |  | 0.63 | 2.5 | 2.5 | > 20 | 5 | > 200 | 10 | > 20 | 10 |
| WLVWIGRRR-NH2 [Hybrid-2] | 0.66 ±0.07 | 1.21 ±0.01 | 2.88 ±1.49 |  | 10 |  | > 20 | > 20 | > 20 | > 200 | > 20 | > 20 | > 20 |
| LLLLLWRRR-NH2 [AcWL-2] | 14.39 ±0.70 | 15.13 ± 2.05 | 27.97 ±2.79 |  | 20 | > 20 | 10 | > 20 | 10 | 50 |  | > 20 |  |
